No end group written: not given here.
Biological target: HCMV protease (also known as assemblin) encoded by UL80 (Human cytomegalovirus, UniProt P16753)
Experiment: Assemblin fluorescence polarization assay: hydrolysis of biotin/DTAF peptide substrate, quenched with avidin
Assay type: biochemical, human cytomegalovirus strain AD169
Conditions: for Polarization: protease 100 nM, substrate 5 μM final, room temperature, avidin added
Procedure: The construction also encoded six additional histidine residues at the amino terminus of the protease. These additional histidine residues provided an affinity ligand by which it was purified using nickel-nitriloacetic acid-agarose (Qiagen).
The assay was performed in a buffer consisting 10 mM Phosphate buffer, pH 7.4, 20% glycerol, 150 mM sodium acetate, 0.1% CHAPS, 0.1 mM EDTA, 0.05% BSA, 2 mM NaSO3. The pH of the buffer was adjusted to 7.4 before the addition of glycerol.
The purified protease was stored as a 10 μM stock solution in 50/50 (V/V) glycerol/water, 50 μL per vial, and held at −20° C. A positive displacement pipette was used to make the 50 μL aliquots. This stock was diluted with assay buffer to 32 nM. A 100 μL aliquot of this solution was used in the enzyme reaction. A 150 μM substrate stock solution was prepared in assay buffer and stored at 4° C. in the dark. A 20 μM dilute assay stock was prepared by dilution of the 150 μM storage stock. A 5 mg/mL avidin stock solution was made by dissolving avidin (Molecular Probes) in assay buffer and stored in the refrigerator at 4° C. Roundbottom 96-well plate microtiter plates (Black MicroFluor, Dynatec) were pre-blocked with 1.0% BSA in PBS, pH 7.4, and stored at 4° C. The plates were rinsed and dried before use.
An HCMV protease (also known as assemblin) encoded by UL80, in buffer (100 nM) was added in multiple wells to rinsed and dried, pre-blocked microtiter plate. No precautions are taken to stabilize the temperature. Substrate (5 μM final concentration) was added, mixed 5 times, and incubated at room temperature. Avidin (35 μL of 5 mg/mL) was added to one group of wells after 10 minutes, to a second group of wells after 20 minutes and to the remaining wells after thirty minutes, mixed 5 times, and the polarization of the resulting mixture was measured on the FPM2 fluorescence polarimeter. The complete hydrolysis to Ser-Ala-Leu-Arg-Lys(DTAF)-NH2 gave a Pmin value of 32.1 mP.

Sequence of HCMV protease (also known as assemblin) encoded by UL80 (P16753 1-256): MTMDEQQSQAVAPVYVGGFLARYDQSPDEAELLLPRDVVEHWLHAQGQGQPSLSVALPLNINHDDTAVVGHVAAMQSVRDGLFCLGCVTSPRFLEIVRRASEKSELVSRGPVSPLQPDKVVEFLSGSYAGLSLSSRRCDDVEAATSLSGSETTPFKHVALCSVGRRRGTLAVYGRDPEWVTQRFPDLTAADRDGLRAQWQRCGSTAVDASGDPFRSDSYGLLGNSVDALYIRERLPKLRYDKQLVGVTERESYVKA

Substance	ΔP = Pmax − P(t) (time 0 min)	Polarization (time 0 min)	ΔP = Pmax − P(t) (time 10 min)	Polarization (time 10 min)	ΔP = Pmax − P(t) (time 20 min)	Polarization (time 20 min)	ΔP = Pmax − P(t) (time 30 min)	Polarization (time 30 min)	Pmin value (polarization) (complete hydrolysis of the substrate to the cleaved fluorescent fragment)
Biotin-γ-Abu-Gly-Val-Val-Asn-Ala-Ser-Ala-Arg-Leu-Lys(DTAF)-NH2 [Example 1]	0.0 mP	214.1 mP	47.0 mP	167.2 mP	77.2 mP	136.9 mP	99.9 mP	114.2 mP	
Ser-Ala-Leu-Arg-Lys(DTAF)-NH2 (SALRK(DTAF)-NH2) [cleaved fluorescent fragment from complete hydrolysis of the assemblin substrate]									32.1 mP

From patent US20010046668A1, “Fluorescence polarization method for determining protease activity” (G.D. Searle & Co., priority 1994, published 2001)
